Experimental data taken from PubChem BioAssay (NCI).
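Exposure lasted 48 hours, with cells grown in 96-well plates and compounds tested at five concentrations. TGI denotes the concentration required for complete inhibition of growth.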

What was measured:
Assay in all cases: NCI anticancer screen, dose series, 48 h
[1] = system: UO-31 renal
[2] = system: SN12C renal
[3] = system: A549 NSCLC
[4] = system: MDA-N
[5] = system: PC-3 prostate
[6] = system: SNB-19 CNS
[7] = system: LOX IMVI melanoma
[8] = system: HT29 colon
[9] = system: HCT-15 colon
[10] = system: CCRF-CEM leukemia
[11] = system: UACC-62 melanoma
[12] = system: SF-539 CNS
[13] = system: HOP-62 NSCLC
[14] = system: SK-MEL-28 melanoma
[15] = system: SK-MEL-5 melanoma
[16] = system: MOLT-4 leukemia
[17] = system: SNB-75 CNS
[18] = system: OVCAR-3 ovarian
[19] = system: SR leukemia
[20] = system: OVCAR-8 ovarian
[21] = system: HCT-116 colon
[22] = system: SF-295 CNS
[23] = system: NCI-H226 lung
[24] = system: IGROV1 ovarian
[25] = system: MCF7 breast
[26] = system: HL-60(TB) leukemia
[27] = system: MALME-3M melanoma
[28] = system: DU-145 prostate
[29] = system: OVCAR-4 ovarian
[30] = system: COLO 205 colon
[31] = system: MDA-MB-231 breast
[32] = system: SK-OV-3 ovarian
[33] = system: CAKI-1 renal
[34] = system: M14 melanoma
[35] = system: NCI-H23 lung
[36] = system: 786-0 renal
[37] = system: NCI/ADR-RES ovarian
[38] = system: ACHN renal
[39] = system: A498 renal
[40] = system: SW-620 colon
[41] = system: K-562 leukemia
[42] = system: HS 578T breast
[43] = system: OVCAR-5 ovarian
[44] = system: HOP-92 NSCLC
[45] = system: T-47D breast
[46] = system: U251 CNS
[47] = system: UACC-257 melanoma
[48] = system: KM12 colon
[49] = system: SF-268 CNS
[50] = system: RXF 393 renal
[51] = system: BT-549 breast
[52] = system: NCI-H460 lung
[53] = system: SK-MEL-2 melanoma
[54] = system: EKVX NSCLC
[55] = system: HCC-2998 colon
[56] = system: TK-10 renal
[57] = system: MDA-MB-435
[58] = system: RPMI-8226 leukemia
[59] = system: NCI-H522 lung

With `Nc1ccc2c(=O)cc(-c3cccs3)[nH]c2n1` the TGI [1] was 26.6 µM, the TGI [2] was over 59.7 µM and the TGI [3] was over 37.5 µM. For the same molecule, the TGI [4] was 1.73 µM, the TGI [5] was over 28.3 µM and the TGI [6] was over 100 µM. For the same molecule, the TGI [7] was over 45.4 µM, the TGI [8] was over 72 µM and the TGI [9] was over 60.4 µM. The TGI [10] was over 44.9 µM, the TGI [11] was over 100 µM and the TGI [12] was 6.17 µM. The TGI [13] was over 100 µM, the TGI [14] was over 100 µM and the TGI [15] was 21 µM. The TGI [16] was over 35.5 µM, the TGI [17] was over 28.5 µM and the TGI [18] was over 100 µM. It also gave a TGI [19] of over 34 µM, a TGI [20] of over 60.5 µM and a TGI [21] of over 50.8 µM. The TGI [22] was over 53.4 µM, the TGI [23] was 8.62 µM and the TGI [24] was over 100 µM. The TGI [25] was over 100 µM, the TGI [26] was 0.671 µM and the TGI [27] was over 100 µM. For the same molecule, the TGI [28] was over 100 µM, the TGI [29] was over 100 µM and the TGI [30] was 6.95 µM. The TGI [31] was over 100 µM, the TGI [32] was over 100 µM and the TGI [33] was over 100 µM. It also gave a TGI [34] of over 54.8 µM, a TGI [35] of over 26.3 µM and a TGI [36] of over 100 µM. For the same molecule, the TGI [37] was 5.5 µM, the TGI [38] was over 100 µM and the TGI [39] was over 100 µM. It also gave a TGI [40] of over 100 µM, a TGI [41] of over 100 µM and a TGI [42] of over 24.9 µM. It also gave a TGI [43] of over 100 µM, a TGI [44] of over 100 µM and a TGI [45] of over 100 µM. The TGI [46] was over 45.6 µM, the TGI [47] was over 100 µM and the TGI [48] was over 100 µM. For the same molecule, the TGI [49] was over 100 µM, the TGI [50] was over 100 µM and the TGI [51] was over 100 µM. For the same molecule, the TGI [52] was over 100 µM, the TGI [53] was over 100 µM and the TGI [54] was over 100 µM. It also gave a TGI [55] of 27.5 µM and a TGI [56] of over 100 µM.
Molecule `CCOP(=O)(OCC)/C(=C/NC(=S)c1ccncc1)C(=O)OC` has a TGI [1] of over 100 µM, a TGI [2] of over 100 µM and a TGI [3] of over 100 µM. The TGI [4] was over 100 µM, the TGI [5] was over 100 µM and the TGI [6] was over 100 µM. The TGI [7] was over 100 µM, the TGI [8] was over 100 µM and the TGI [9] was over 100 µM. The TGI [10] was 64.8 µM, the TGI [11] was over 100 µM and the TGI [12] was over 100 µM. For the same molecule, the TGI [13] was over 100 µM, the TGI [15] was over 100 µM and the TGI [57] was over 100 µM. For the same molecule, the TGI [16] was over 100 µM, the TGI [18] was over 100 µM and the TGI [19] was over 100 µM. The TGI [20] was over 100 µM, the TGI [21] was over 100 µM and the TGI [22] was over 100 µM. It also gave a TGI [23] of over 100 µM, a TGI [24] of over 100 µM and a TGI [58] of over 100 µM. The TGI [25] was over 100 µM, the TGI [26] was over 100 µM and the TGI [28] was over 100 µM. The TGI [29] was over 100 µM, the TGI [30] was over 100 µM and the TGI [31] was over 100 µM. It also gave a TGI [32] of over 100 µM, a TGI [33] of over 100 µM and a TGI [34] of over 100 µM. For the same molecule, the TGI [35] was over 100 µM, the TGI [36] was over 100 µM and the TGI [37] was over 100 µM. For the same molecule, the TGI [38] was over 100 µM, the TGI [40] was over 100 µM and the TGI [41] was over 100 µM. The TGI [42] was over 100 µM, the TGI [43] was over 100 µM and the TGI [44] was over 100 µM. For the same molecule, the TGI [45] was over 100 µM, the TGI [46] was over 100 µM and the TGI [47] was over 100 µM. For the same molecule, the TGI [48] was over 100 µM, the TGI [49] was over 100 µM and the TGI [50] was over 100 µM. The TGI [59] was over 100 µM, the TGI [51] was over 100 µM and the TGI [52] was over 100 µM. For the same molecule, the TGI [53] was over 100 µM, the TGI [54] was over 100 µM and the TGI [55] was over 100 µM. It also gave a TGI [56] of over 100 µM.
